Source: PubChem BioAssay (NCI)
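Briefly, cells in 96-well plates were exposed to five compound concentrations for 48 h, and endpoints were estimated by linear interpolation. Here, GI50 denotes the concentration required for 50% inhibition of growth. TGI: concentration producing complete growth inhibition.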

Tests used:
Experiment in all cases: DTP human tumour cell line panel, 48 h
UACC-257 melanoma = test system: UACC-257 melanoma
NCI-H522 lung = test system: NCI-H522 lung
OVCAR-8 ovarian = test system: OVCAR-8 ovarian
SF-295 CNS = test system: SF-295 CNS
KM12 colon = test system: KM12 colon
T-47D breast = test system: T-47D breast
A498 renal = test system: A498 renal
SW-620 colon = test system: SW-620 colon
HOP-62 NSCLC = test system: HOP-62 NSCLC
786-0 renal = test system: 786-0 renal
U251 CNS = test system: U251 CNS
IGROV1 ovarian = test system: IGROV1 ovarian
UACC-62 melanoma = test system: UACC-62 melanoma
HOP-92 NSCLC = test system: HOP-92 NSCLC
MOLT-4 leukemia = test system: MOLT-4 leukemia
PC-3 prostate = test system: PC-3 prostate
NCI-H226 lung = test system: NCI-H226 lung
SF-268 CNS = test system: SF-268 CNS
HL-60(TB) leukemia = test system: HL-60(TB) leukemia
SN12C renal = test system: SN12C renal
SNB-19 CNS = test system: SNB-19 CNS
HCT-15 colon = test system: HCT-15 colon
DU-145 prostate = test system: DU-145 prostate
HCT-116 colon = test system: HCT-116 colon
SF-539 CNS = test system: SF-539 CNS
HS 578T breast = test system: HS 578T breast
HCC-2998 colon = test system: HCC-2998 colon
HT29 colon = test system: HT29 colon
MCF7 breast = test system: MCF7 breast
SNB-75 CNS = test system: SNB-75 CNS
SK-MEL-2 melanoma = test system: SK-MEL-2 melanoma
RPMI-8226 leukemia = test system: RPMI-8226 leukemia
OVCAR-4 ovarian = test system: OVCAR-4 ovarian
NCI-H460 lung = test system: NCI-H460 lung
LOX IMVI melanoma = test system: LOX IMVI melanoma
BT-549 breast = test system: BT-549 breast
COLO 205 colon = test system: COLO 205 colon
NCI/ADR-RES ovarian = test system: NCI/ADR-RES ovarian
CCRF-CEM leukemia = test system: CCRF-CEM leukemia
TK-10 renal = test system: TK-10 renal
SK-MEL-28 melanoma = test system: SK-MEL-28 melanoma
MDA-MB-231 breast = test system: MDA-MB-231 breast
OVCAR-5 ovarian = test system: OVCAR-5 ovarian
EKVX NSCLC = test system: EKVX NSCLC
ACHN renal = test system: ACHN renal
NCI-H23 lung = test system: NCI-H23 lung
SR leukemia = test system: SR leukemia
SK-MEL-5 melanoma = test system: SK-MEL-5 melanoma
M14 melanoma = test system: M14 melanoma
SK-OV-3 ovarian = test system: SK-OV-3 ovarian
K-562 leukemia = test system: K-562 leukemia

COc1cc(-c2nc3ccccc3s2)ccc1OCCCCCOc1cc2c(cc1OC)C(=O)N1CCC[C@H]1C=N2
GI50 (UACC-257 melanoma): 253 nM | TGI (UACC-257 melanoma): 1170 nM | GI50 (NCI-H522 lung): 97.4 nM | TGI (NCI-H522 lung): 1140 nM | GI50 (OVCAR-8 ovarian): 168 nM | TGI (OVCAR-8 ovarian): > 69800 nM | GI50 (SF-295 CNS): 140 nM | TGI (SF-295 CNS): > 63300 nM | GI50 (KM12 colon): 206 nM | TGI (KM12 colon): 1600 nM | GI50 (T-47D breast): 40.7 nM | TGI (T-47D breast): 160 nM | GI50 (A498 renal): 199 nM | TGI (A498 renal): 358 nM | GI50 (SW-620 colon): 91.2 nM | TGI (SW-620 colon): 1030 nM | GI50 (HOP-62 NSCLC): 85.1 nM | TGI (HOP-62 NSCLC): 950 nM | GI50 (786-0 renal): 84.3 nM | TGI (786-0 renal): 380 nM | GI50 (U251 CNS): 63.2 nM | TGI (U251 CNS): 7140 nM | GI50 (IGROV1 ovarian): 244 nM | GI50 (UACC-62 melanoma): 114 nM | TGI (UACC-62 melanoma): 265 nM | GI50 (HOP-92 NSCLC): 100 nM | TGI (HOP-92 NSCLC): 397 nM | GI50 (MOLT-4 leukemia): 41.3 nM | TGI (MOLT-4 leukemia): 2270 nM | GI50 (PC-3 prostate): 103 nM | TGI (PC-3 prostate): 665 nM | GI50 (NCI-H226 lung): 212 nM | TGI (NCI-H226 lung): 528 nM | GI50 (SF-268 CNS): 305 nM | TGI (SF-268 CNS): 3530 nM | GI50 (HL-60(TB) leukemia): 75.7 nM | TGI (HL-60(TB) leukemia): 699 nM | GI50 (SN12C renal): 256 nM | TGI (SN12C renal): 4540 nM | GI50 (SNB-19 CNS): 213 nM | TGI (SNB-19 CNS): 4610 nM | GI50 (HCT-15 colon): 284 nM | TGI (HCT-15 colon): 6020 nM | GI50 (DU-145 prostate): 104 nM | TGI (DU-145 prostate): 5310 nM | GI50 (HCT-116 colon): 38.7 nM | TGI (HCT-116 colon): 10100 nM | GI50 (SF-539 CNS): 86.4 nM | TGI (SF-539 CNS): 286 nM | GI50 (HS 578T breast): 219 nM | TGI (HS 578T breast): 600 nM | GI50 (HCC-2998 colon): 125 nM | TGI (HCC-2998 colon): 300 nM | GI50 (HT29 colon): 83.7 nM | TGI (HT29 colon): 4270 nM | GI50 (MCF7 breast): 32.4 nM | TGI (MCF7 breast): 701 nM | GI50 (SNB-75 CNS): 191 nM | TGI (SNB-75 CNS): 779 nM | GI50 (SK-MEL-2 melanoma): 201 nM | TGI (SK-MEL-2 melanoma): 463 nM | GI50 (RPMI-8226 leukemia): 97.2 nM | TGI (RPMI-8226 leukemia): 424 nM | GI50 (OVCAR-4 ovarian): 264 nM | GI50 (NCI-H460 lung): 76.8 nM | TGI (NCI-H460 lung): 2060 nM | GI50 (LOX IMVI melanoma): 129 nM | TGI (LOX IMVI melanoma): 7970 nM | GI50 (BT-549 breast): 45.7 nM | TGI (BT-549 breast): 126 nM | GI50 (COLO 205 colon): 99.2 nM | TGI (COLO 205 colon): 332 nM | GI50 (NCI/ADR-RES ovarian): 376 nM | TGI (NCI/ADR-RES ovarian): 4760 nM | GI50 (CCRF-CEM leukemia): 27.5 nM | TGI (CCRF-CEM leukemia): 2160 nM | GI50 (TK-10 renal): 334 nM | TGI (TK-10 renal): 14100 nM | GI50 (SK-MEL-28 melanoma): 255 nM | GI50 (MDA-MB-231 breast): 145 nM | TGI (MDA-MB-231 breast): 1970 nM | GI50 (OVCAR-5 ovarian): 154 nM | TGI (OVCAR-5 ovarian): 7870 nM | GI50 (EKVX NSCLC): 364 nM | TGI (EKVX NSCLC): 953 nM | GI50 (ACHN renal): 53.5 nM | TGI (ACHN renal): 398 nM | GI50 (NCI-H23 lung): 114 nM | TGI (NCI-H23 lung): 365 nM | GI50 (SR leukemia): < 13.2 nM | GI50 (SK-MEL-5 melanoma): 59 nM | TGI (SK-MEL-5 melanoma): 135 nM | GI50 (M14 melanoma): 76.2 nM | TGI (M14 melanoma): 257 nM | GI50 (SK-OV-3 ovarian): 177 nM | TGI (SK-OV-3 ovarian): 674 nM | GI50 (K-562 leukemia): 32.1 nM | TGI (K-562 leukemia): 2230 nM
